Structures can show the parent of a compound that is named as a salt. Where two headings read alike, the source gives them in different places. A value given as a limit tells only on which side of the number the result lay.

Drawing on US10125134B2 (Mirati Therapeutics, Inc., priority 2016, dated 2018), this text covers POC and IC50 for 21 compounds.

One experiment has as its target KRas G12C (Homo sapiens, UniProt P01116, C118S/C51S/C80L/G12C). Briefly: KRas G12C Modification Assay (LCMS detection of covalent adduct). Format: binding. To be noted: normalized percent of control; tested at 5 μM concentration for 3 hours. In short, it runs like this: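 Covalent modification was read by reverse-phase LC/MS of intact protein after compound exposure, each reaction stopped at its time point with 25 mM acetic acid. Unmodified-protein signal, taken as percent of total, was normalised to untreated protein and reported as POC.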

Experiment [1] has as its system NCI-H358 cells (express KRas G12C), Phospho-ERK. Briefly: Cellular inhibition of KRas G12C: Phospho-ERK in NCI-H358 cells. To be noted: Homo sapiens, pERK(Thr202/Tyr204) normalized with GAPDH, NCI-H358 cells, 3 hours, read-out: IC50. Format: cell-based. In short, it runs like this:
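IC50 derived by 4-parameter fit of GAPDH-normalized pERK(Thr202/Tyr204) signal, as percent of DMSO control. Signal came from in-cell immunodetection with infrared secondaries after 3 h compound exposure of KRas G12C NCI-H358 cells at 0.5% DMSO.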

In the case of `C=CC(=O)N1[C@@H]2CC[C@H]1CN(c1nc(OC(C)CN(C)C)nc3c1CCN(c1cc(O)cc4ccccc14)C3)C2` (stereo partly drawn) [Example 45, 1-((1R,5S)-3-(2-((1-(dimethylamino)propan-2-yl)oxy)-7-(3-hydroxynaphthalen-1-yl)-5,6,7,8-tetrahydropyrido[3,4-d]pyrimidin-4-yl)-3,8-diazabicyclo[3.2.1]octan-8-yl)prop-2-en-1-one], on KRas G12C, the POC entry was “A (“A”≤25% POC)”. The IC50 in experiment [1] was over 1 µM.
In the case of `C=CC(=O)N1C[C@H]2CC[C@@H](C1)N2c1nc(OC(C)CN(C)C)nc2c1CCN(c1cc(O)cc3ccccc13)C2` (stereo partly drawn) [Example 46, 1-((1R,5S)-8-(2-((1-(dimethylamino)propan-2-yl)oxy)-7-(3-hydroxynaphthalen-1-yl)-5,6,7,8-tetrahydropyrido[3,4-d]pyrimidin-4-yl)-3,8-diazabicyclo[3.2.1]octan-3-yl)prop-2-en-1-one], at KRas G12C, the POC entry was “A (“A”≤25% POC)”. Moreover, in experiment [1], the 50% inhibitory concentration (IC50) is over 1 µM.
In the case of `C=CC(=O)N1CCN(c2nc(OCCN(C)C)nc3c2CCN(c2cc(O)cc4ccccc24)C3C)CC1` (stereo not drawn) [Example 47, 1-(4-(2-(2-(dimethylamino)ethoxy)-7-(3-hydroxynaphthalen-1-yl)-8-methyl-5,6,7,8-tetrahydropyrido[3,4-d]pyrimidin-4-yl)piperazin-1-yl)prop-2-en-1-one], the POC entry on KRas G12C is on record as “C (“C”>50% POC)”. Moreover, the IC50 in experiment [1] was over 1 µM.
For `C=CC(=O)N1CCN(c2nc(OCCN(C)C)nc3c2CC(C)N(c2cc(O)cc4ccccc24)C3)CC1` (stereo not drawn) [Example 48, 1-(4-(2-(2-(dimethylamino)ethoxy)-7-(3-hydroxynaphthalen-1-yl)-6-methyl-5,6,7,8-tetrahydropyrido[3,4-d]pyrimidin-4-yl)piperazin-1-yl)prop-2-en-1-one trifluoroacetate] the same measures were “C (“C”>50% POC)” and over 1 µM.
Regarding `C=CC(=O)N1CCN(c2nc(OCCN3CCC(F)C3)nc3c2CCN(c2cc(O)cc4ccccc24)C3)CC1` (stereo not drawn) [Example 49, 1-(4-(2-(2-(3-fluoropyrrolidin-1-yl)ethoxy)-7-(3-hydroxynaphthalen-1-yl)-5,6,7,8-tetrahydropyrido[3,4-d]pyrimidin-4-yl)piperazin-1-yl)prop-2-en-1-one], the POC entry at KRas G12C is reported as “B (“B”>25% POC−≤50% POC)”. Also, the concentration for half-maximal inhibition (IC50) in experiment [1] (NCI-H358, 3 h) was over 1 µM.
As to `C=CC(=O)N1CCN(c2nc(OCCN(C)C)nc3c2CCN(c2cc(O)cc4ccccc24)C3)CC1CO` (stereo not drawn) [Example 50, 1-(4-(2-(2-(dimethylamino)ethoxy)-7-(3-hydroxynaphthalen-1-yl)-5,6,7,8-tetrahydropyrido[3,4-d]pyrimidin-4-yl)-2-(hydroxymethyl)piperazin-1-yl)prop-2-en-1-one], the POC entry on KRas G12C was “C (“C”>50% POC)”. Further, the IC50 in experiment [1] (NCI-H358, 3 h) was over 1 µM.
For the compound `C=CC(=O)N1CCN(c2nc(OCCN(C)C)nc3c2CCN(c2cc(O)cc4ccccc24)C3)CC1C(=O)N(C)C` (stereo not drawn) [Example 51, 1-acryloyl-4-(2-(2-(dimethylamino)ethoxy)-7-(3-hydroxynaphthalen-1-yl)-5,6,7,8-tetrahydropyrido[3,4-d]pyrimidin-4-yl)-N,N-dimethylpiperazine-2-carboxamide], the POC entry on KRas G12C is “A (“A”≤25% POC)”. Also, the IC50 in experiment [1] was over 1 µM.
`C=CC(=O)N1CCN(c2nc(OCCN3CCCCC3)nc3c2CCN(c2cc(O)cc4ccccc24)C3)CC1` [Example 52, 1-[4-[7-(3-hydroxy-1-naphthyl)-2-[2-(1-piperidyl)ethoxy]-6,8-dihydro-5H-pyrido[3,4-d]pyrimidin-4-yl]piperazin-1-yl]prop-2-en-1-one]: the POC result on KRas G12C is given as “C (“C”>50% POC)”. For the same compound, the IC50 in experiment [1] (NCI-H358, 3 h) fell in the range of 0.0001 to 1 µM.
Consider `C=CC(=O)N1CCN(c2nc(OCCN(C)C)nc3c2CCN(c2cc(O)cc4ccccc24)C3)C(CO)C1` (stereo not drawn) [Example 53, 1-(4-(2-(2-(dimethylamino)ethoxy)-7-(3-hydroxynaphthalen-1-yl)-5,6,7,8-tetrahydropyrido[3,4-d]pyrimidin-4-yl)-3-(hydroxymethyl)piperazin-1-yl)prop-2-en-1-one], for which the POC result at KRas G12C is listed as “C (“C”>50% POC)”. Moreover, the 50% inhibitory concentration (IC50) in experiment [1] (NCI-H358, 3 h) was over 1 µM.
For `C=CC(=O)N1CCN(c2ncnc3c2CCN(c2nc(N)cc4ccccc24)C3)CC1` [Example 54, 1-[4-[7-(3-amino-1-isoquinolyl)-6,8-dihydro-5H-pyrido[3,4-d]pyrimidin-4-yl]piperazin-1-yl]prop-2-en-1-one], on KRas G12C, the POC entry is listed as “A (“A”≤25% POC)”. For the same compound, in experiment [1], the IC50 is over 1 µM.
`C=CC(=O)N1CCN(c2nc(OCC(CO)N(C)C)nc3c2CCN(c2cc(O)cc4ccccc24)C3)CC1` (stereo not drawn) [Example 55, 1-(4-(2-(2-(dimethylamino)-3-hydroxypropoxy)-7-(3-hydroxynaphthalen-1-yl)-5,6,7,8-tetrahydropyrido[3,4-d]pyrimidin-4-yl)piperazin-1-yl)prop-2-en-1-one]: the POC entry on KRas G12C is “C (“C”>50% POC)”. In addition, the IC50 in experiment [1] (NCI-H358, 3 h) lay in the range of 0.0001 to 1 µM.
For `C=CC(=O)N1CCN(c2nc(O[C@H](C)CN3CCOCC3)nc3c2CCN(c2cc(O)cc4ccccc24)C3)CC1` [Example 56, (R)-1-(4-(7-(3-hydroxynaphthalen-1-yl)-2-((1-morpholinopropan-2-yl)oxy)-5,6,7,8-tetrahydropyrido[3,4-d]pyrimidin-4-yl)piperazin-1-yl)prop-2-en-1-one] the same measures were “C (“C”>50% POC)” and 0.0001 to 1 µM.
Turning to `C=CC(=O)N1CCN(c2nc(OC[C@@H]3CCC(=O)N3)nc3c2CCN(c2cc(O)cc4ccccc24)C3)CC1` [Example 57, (S)-5-(((4-(4-acryloylpiperazin-1-yl)-7-(3-hydroxynaphthalen-1-yl)-5,6,7,8-tetrahydropyrido[3,4-d]pyrimidin-2-yl)oxy)methyl)pyrrolidin-2-one], the POC result at KRas G12C is “C (“C”>50% POC)”. Moreover, the IC50 in experiment [1] (NCI-H358, 3 h) was over 1 µM.
`C=CC(=O)N1CCN(c2nc(OC[C@H]3CCC(=O)N3)nc3c2CCN(c2cc(O)cc4ccccc24)C3)CC1` [Example 58, (R)-5-(((4-(4-acryloylpiperazin-1-yl)-7-(3-hydroxynaphthalen-1-yl)-5,6,7,8-tetrahydropyrido[3,4-d]pyrimidin-2-yl)oxy)methyl)pyrrolidin-2-one]: on KRas G12C, the POC result is listed as “C (“C”>50% POC)”. For the same compound, the IC50 in experiment [1] (NCI-H358, 3 h) is over 1 µM.
As for `C=CC(=O)N1CCN(c2nc(OCCNC(C)=O)nc3c2CCN(c2cc(O)cc4ccccc24)C3)CC1` [Example 59, N-(2-((4-(4-acryloylpiperazin-1-yl)-7-(3-hydroxynaphthalen-1-yl)-5,6,7,8-tetrahydropyrido[3,4-d]pyrimidin-2-yl)oxy)ethyl)acetamide], on KRas G12C, the POC entry is on record as “C (“C”>50% POC)”. Further, the half-inhibitory concentration (IC50) in experiment [1] (NCI-H358, 3 h) is over 1 µM.
Regarding `C=CC(=O)N1CCN(c2nc(O[C@H](CC)CN(C)C)nc3c2CCN(c2cc(O)cc4ccccc24)C3)CC1` [Example 60, (R)-1-(4-(2-((1-(dimethylamino)butan-2-yl)oxy)-7-(3-hydroxynaphthalen-1-yl)-5,6,7,8-tetrahydropyrido[3,4-d]pyrimidin-4-yl)piperazin-1-yl)prop-2-en-1-one], the POC result at KRas G12C is reported as “C (“C”>50% POC)”. In experiment [1] (NCI-H358, 3 h), the IC50 was over 1 µM.
In the case of `C=CC(=O)N1CCN(c2nc(O[C@H](C)CN3CC[C@@H](OC)C3)nc3c2CCN(c2cc(O)cc4ccccc24)C3)CC1` [Example 63, 1-(4-(7-(3-hydroxynaphthalen-1-yl)-2-(((R)-1-((R)-3-methoxypyrrolidin-1-yl)propan-2-yl)oxy)-5,6,7,8-tetrahydropyrido[3,4-d]pyrimidin-4-yl)piperazin-1-yl)prop-2-en-1-one], the POC entry at KRas G12C is “C (“C”>50% POC)”. In addition, the IC50 in experiment [1] (NCI-H358, 3 h) is over 1 µM.
As to `C=CC(=O)N1CCN(c2nc(O[C@H](C)CN3CC[C@H](OC)C3)nc3c2CCN(c2cc(O)cc4ccccc24)C3)CC1` [Example 64, 1-(4-(7-(3-hydroxynaphthalen-1-yl)-2-(((R)-1-((S)-3-methoxypyrrolidin-1-yl)propan-2-yl)oxy)-5,6,7,8-tetrahydropyrido[3,4-d]pyrimidin-4-yl)piperazin-1-yl)prop-2-en-1-one], on KRas G12C, the POC result is on record as “C (“C”>50% POC)”. In addition, in experiment [1] (NCI-H358, 3 h), the IC50 fell in the range of 0.0001 to 1 µM.
As for `C=CC(=O)N1CCN(c2nc(O[C@H](C)CN3CC[C@H](O)C3)nc3c2CCN(c2cc(O)cc4ccccc24)C3)CC1` [Example 65, 1-(4-(7-(3-hydroxynaphthalen-1-yl)-2-(((R)-1-((S)-3-hydroxypyrrolidin-1-yl)propan-2-yl)oxy)-5,6,7,8-tetrahydropyrido[3,4-d]pyrimidin-4-yl)piperazin-1-yl)prop-2-en-1-one], on KRas G12C, the POC result was “C (“C”>50% POC)”. Besides, the IC50 in experiment [1] (NCI-H358, 3 h) is over 1 µM.
On to `C=CC(=O)N1CCN(c2nc(O[C@H]3CCCN(C)C3)nc3c2CCN(c2cc(O)cc4ccccc24)C3)CC1` [Example 66, (S)-1-(4-(7-(3-hydroxynaphthalen-1-yl)-2-((1-methylpiperidin-3-yl)oxy)-5,6,7,8-tetrahydropyrido[3,4-d]pyrimidin-4-yl)piperazin-1-yl)prop-2-en-1-one], for which the POC result at KRas G12C was “C (“C”>50% POC)”. Besides, in experiment [1] (NCI-H358, 3 h), the IC50 is over 1 µM.
For the compound `C=CC(=O)N1CCN(c2nc(O[C@@H]3CCCN(C)C3)nc3c2CCN(c2cc(O)cc4ccccc24)C3)CC1` [Example 67, (R)-1-(4-(7-(3-hydroxynaphthalen-1-yl)-2-((1-methylpiperidin-3-yl)oxy)-5,6,7,8-tetrahydropyrido[3,4-d]pyrimidin-4-yl)piperazin-1-yl)prop-2-en-1-one], the POC result at KRas G12C was “C (“C”>50% POC)”. The IC50 in experiment [1] (NCI-H358, 3 h) was in the range of 0.0001 to 1 µM.

The term IC50 denotes the point on the concentration scale where inhibition reaches its midpoint.
